# Columns and labels:
# [1] = Glass transition temperature (Tg) by DSC; type: physicochemical
# Experimental: Glass transition temperatures were determined using DSC for physical mixtures of D-tagatose and respective excipients subjected to melt quenching. Samples were prepared by geometrically mixing D-tagatose and excipients at a 1:1 (w/w) ratio. Once mixed, the samples were then rigorously ground using a mortar and pestle before being hermetically sealed within a T-Zero pan. Once sealed, the samples were transferred to a Q2000 DSC (TA Instruments, New Castle, DE). All samples were run with the DSC operating in the modulation mode with a “pinhole” lid to better capture the sample's behavior instead of any residual vapors. The modulating method was first equilibrated at −20° C. before heating at 10° C./min to 140° C. […] Once −10° C. was reached, samples were set to modulate at ±0.5° C. every 60 s immediately and held for 5 min before ramping 1° C./min back to 140° C. Reported Tg values were averages of triplicate samples, each determined from the midpoint of the glass transition step change from the resultant reversible heat flow curves vs. temperature thermograms. All DSC mass samples were between 1 and 5 mg.
# [2] = D-tagatose fully dissolved in water:organic dual solvent systems; type: physicochemical
# From the text: The solvent used in the spray-drying feed formulation may be substantially any solvent suitable for the intended purpose including, for example, an appropriate co-solvent system. That co-solvent system may include acetone and water. The acetone and water may be provided at a ratio of between 1:1 and 4.6:1 (v/v %). In other embodiments, the co-solvent system may include methanol and water, propanol and water or ethanol and water.
# [3] = oral ingestion; cited from earlier work
# [4] = crystalline D-tagatose, at 20° C.; cited from earlier work
# [5] = D-tagatose dissolved in tri-solvent systems; type: physicochemical
# From the text: Tri-solvent systems may also be used. One example of a tri-solvent system is ethanol, methanol and water.
# Table 2: Summarizes tri-solvent systems that have shown to dissolve D-tagatose.
# type 2 diabetes = conditions: cited from earlier work
# [6] = granted 2004; such low toxicity that no daily intake monitoring is needed; cited from earlier work
compound,measurement,setting,value
"O=C(CO)[C@@H](O)[C@@H](O)[C@H](O)CO [D-tagatose, D-(−)-tagatose]",dry Tg (glass transition temperature),[1],18.92 °C
same,amount of D-tagatose dissolved,[2]; 2-Propanol:Water 5 mL:3.6 mL,~1 gram
same,w % Tagatose (fully dissolved),"[2]; 2-Propanol:water, 45.6 w % water, 43.3 w % organic",11.1 w %
same,amount of D-tagatose dissolved,[2]; Acetone:Water 5 mL:4.1 mL,~1 gram
same,w % Tagatose (fully dissolved),"[2]; Acetone:water, 46.0 w % water, 42.7 w % organic",11.3 w %
same,amount of D-tagatose dissolved,[2]; Ethanol:Water 5 mL:4.2 mL,~1 gram
same,w % Tagatose (fully dissolved),"[2]; Ethanol:water, 45.9 w % water, 42.5 w % organic",11.6 w %
same,amount of D-tagatose dissolved,[2]; Methanol:Water 5 mL:3.1 mL,~1 gram
same,w % Tagatose (fully dissolved),"[2]; Methanol:water, 46.0 w % water, 42.7 w % organic",11.2 w %
same,fraction of orally ingested dose fully metabolized,[3],20%
same,aqueous solubility,[4],160 g/100 mL
same,amount of D-tagatose dissolved,"[5]; 2-Propanol:Acetone:Water 1 mL:5 mL:3.8 mL, sonicate while adding water",~1 gram
same,amount of D-tagatose dissolved,"[5]; 2-Propanol:Acetone:Water 5 mL:1 mL:3.6 mL, sonicate while adding water",~1 gram
same,amount of D-tagatose dissolved,"[5]; 2-Propanol:Ethanol:Water 1 mL:5 mL:4.2 mL, sonicate while adding water",~1 gram
same,amount of D-tagatose dissolved,"[5]; 2-Propanol:Ethanol:Water 5 mL:1 mL:4.6 mL, sonicate while adding water",~1 gram
same,w % Tagatose (dissolved),"[5]; Ethanol 1 mL + 5 mL methanol + water, 37.324 w % water, 51.789 w % organic",10.887 w %
same,w % Tagatose (dissolved),"[5]; Ethanol 2 mL + 5 mL methanol + water, 36.185 w % water, 53.816 w % organic",9.999 w %
same,w % Tagatose (dissolved),"[5]; Ethanol 3 mL + 5 mL methanol + water, 32.436 w % water, 58.272 w % organic",9.292 w %
same,w % Tagatose (dissolved),"[5]; Methanol 1 mL + 5 mL ethanol + water, 39.808 w % water, 49.3620231 w % organic",10.830 w %
same,w % Tagatose (dissolved),"[5]; Methanol 2 mL + 5 mL ethanol + water, 37.459 w % water, 52.8123019 w % organic",9.729 w %
same,w % Tagatose (dissolved),"[5]; Methanol 3 mL + 5 mL ethanol + water, 35.506 w % water, 55.7893055 w % organic",8.704 w %
same,amount of D-tagatose dissolved,[5]; Methanol:Ethanol:Water 5 mL:1 mL:3.4 mL,~1 gram
same,effect on HbA1c,type 2 diabetes,lower
same,effect on LDL,type 2 diabetes,lower
same,effect on fasting blood glucose levels,type 2 diabetes,lower
same,effect on total cholesterol,type 2 diabetes,lower
same,safe daily intake,[6],not specified

# Reference: patent US11795189B2, “Formulation and method for spray-drying D-tagatose” (University of Kentucky Research Foundation, priority 2020, dated 2023)
